Measured values published in ChEMBL document CHEMBL2074448, “Transport of anthelmintic benzimidazole drugs by breast cancer resistance protein (BCRP/ABCG2)” (Drug Metab Dispos, 2005).

Assays:
Assay type in all cases: functional, cell-based
Conditions in all cases: dog, mdck-ii
[1] = biological target: T1, Broad substrate specificity ATP-binding cassette transporter ABCG2 (Homo sapiens, UniProt Q9UNQ0); experiment: TP_TRANSPORTER: transepithelial transport (basal to apical) in BCRP-expressing MDCKII cells
T1 sequence (Q9UNQ0 whole entry): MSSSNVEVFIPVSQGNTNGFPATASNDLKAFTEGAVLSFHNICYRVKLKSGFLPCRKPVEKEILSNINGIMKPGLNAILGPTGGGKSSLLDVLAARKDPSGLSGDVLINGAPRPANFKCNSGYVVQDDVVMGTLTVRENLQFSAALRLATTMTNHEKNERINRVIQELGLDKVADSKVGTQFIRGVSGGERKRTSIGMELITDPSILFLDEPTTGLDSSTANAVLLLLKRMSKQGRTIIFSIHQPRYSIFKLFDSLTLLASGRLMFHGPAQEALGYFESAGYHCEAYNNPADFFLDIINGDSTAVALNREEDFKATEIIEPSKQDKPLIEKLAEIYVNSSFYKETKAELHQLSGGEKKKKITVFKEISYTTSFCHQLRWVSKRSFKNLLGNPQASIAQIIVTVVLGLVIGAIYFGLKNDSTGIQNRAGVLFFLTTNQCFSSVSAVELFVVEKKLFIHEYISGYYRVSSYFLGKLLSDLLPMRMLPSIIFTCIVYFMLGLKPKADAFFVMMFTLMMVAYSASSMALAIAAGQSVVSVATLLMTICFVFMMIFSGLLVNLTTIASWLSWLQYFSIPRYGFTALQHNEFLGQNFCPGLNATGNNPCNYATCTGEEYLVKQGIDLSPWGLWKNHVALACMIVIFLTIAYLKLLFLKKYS

[2] = biological target: T2, Broad substrate specificity ATP-binding cassette transporter ABCG2 (Mus musculus, UniProt Q7TMS5); experiment: TP_TRANSPORTER: transepithelial transport (basal to apical) in Bcrp1-expressing MDCKII cells
T2 sequence (Q7TMS5 whole entry): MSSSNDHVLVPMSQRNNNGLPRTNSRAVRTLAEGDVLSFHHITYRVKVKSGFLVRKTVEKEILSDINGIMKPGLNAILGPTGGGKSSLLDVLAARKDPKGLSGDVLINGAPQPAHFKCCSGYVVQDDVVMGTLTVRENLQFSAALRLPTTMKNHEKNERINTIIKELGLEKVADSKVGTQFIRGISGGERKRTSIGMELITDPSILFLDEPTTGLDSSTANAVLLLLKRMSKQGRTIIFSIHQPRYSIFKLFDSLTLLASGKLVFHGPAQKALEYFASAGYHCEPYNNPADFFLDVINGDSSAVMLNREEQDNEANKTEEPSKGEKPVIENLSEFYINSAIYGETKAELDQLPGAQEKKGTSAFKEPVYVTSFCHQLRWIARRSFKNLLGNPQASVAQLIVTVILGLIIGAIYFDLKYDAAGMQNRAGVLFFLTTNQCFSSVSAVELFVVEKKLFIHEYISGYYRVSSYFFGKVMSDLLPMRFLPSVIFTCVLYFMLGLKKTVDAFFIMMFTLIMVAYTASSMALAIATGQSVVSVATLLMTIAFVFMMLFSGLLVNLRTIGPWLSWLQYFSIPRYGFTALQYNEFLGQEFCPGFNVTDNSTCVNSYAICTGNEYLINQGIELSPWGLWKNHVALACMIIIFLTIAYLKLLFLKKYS

[3] = biological target: T2, Broad substrate specificity ATP-binding cassette transporter ABCG2; experiment: TP_TRANSPORTER: transepithelial transport of PhIP (basal to apical) in Bcrp1-expressing MDCKII cells
[4] = biological target: T1, Broad substrate specificity ATP-binding cassette transporter ABCG2; experiment: TP_TRANSPORTER: transepithelial transport of PhIP (basal to apical) in BCRP-expressing MDCKII cells

Activity [1] | Activity [2] | Activity [4] | Structure (SMILES) | Activity [3]
substrate [] | substrate [] | – | CCC[S+]([O-])c1ccc2[nH]c(NC(=O)OC)nc2c1 (stereo unspecified) [ALBENDAZOLE OXIDE] | –
– | – | – | COc1ccc2c3c([nH]c2c1)[C@H](CC(C)C)N1C(=O)[C@H](CCC(=O)OC(C)(C)C)NC(=O)[C@@H]1C3 | inhibitor []
– | substrate [] | inhibitor [] | COC(=O)Nc1nc2ccc([S+]([O-])c3ccccc3)cc2[nH]1 (stereo unspecified) [OXFENDAZOLE] | inhibitor []
